Data on 17 compounds can be found in patent publication US10533010B2, “Substituted indole Mcl-1 inhibitors” (Vanderbilt University, priority 2014, dated 2020).

What is called Ki is the dissociation constant of the complex between target and ligand, obtained from inhibition or displacement.

The target of one assay is recombinant Mcl-1 (residues 172-327) (Homo sapiens (Human), UniProt Q07820). Put plainly: Fluorescence polarization anisotropy competition assay (FITC-Bak or FITC-Bim BH3 peptide) with Mcl-1. The class given is binding.
recombinant Mcl-1 (residues 172-327), sequence (Q07820 172-327): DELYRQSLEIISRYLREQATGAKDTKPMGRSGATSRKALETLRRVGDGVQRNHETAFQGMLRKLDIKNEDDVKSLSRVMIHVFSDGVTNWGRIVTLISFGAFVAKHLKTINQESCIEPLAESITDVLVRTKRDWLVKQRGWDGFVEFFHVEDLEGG
Conditions: not given
A general note: In fluorescence polarisation assays a small probe gives low polarisation when free and higher when bound to something large.
Consider `Cc1cc(OCCCc2c(C(=O)NCC(=O)O)[nH]c3ccccc23)cc(C)c1Cl` [I-3, (3-(3-(4-chloro-3,5-dimethylphenoxy)propyl)-1H-indole-2-carbonyl)glycine], for which the Ki lay within 501 to 999 nM.

The same assay, now with this note: Table 2; Ki bins given in nM; FITC-Bak or FITC-Bim peptide competition; Ki converted from IC50; read-out: Ki for Inhibition of Mcl-1.
As to `Cc1cc(OCCCc2c(C(=O)Nc3cccc(C(=O)O)c3)[nH]c3c(-c4c(C)nn(CCN5CCOCC5)c4C)c(Cl)ccc23)cc(C)c1Cl` [I-191, 3-(6-chloro-3-(3-(4-chloro-3,5-dimethylphenoxy)propyl)-7-(3,5-dimethyl-1-(2-morpholinoethyl)-1H-pyrazol-4-yl)-1H-indole-2-carboxamido)benzoic acid], the Ki is below 50 nM.

For the compound `Cc1cc(OCCCc2c3n(c4c(-c5c(C)nn(C)c5C)c(Cl)ccc24)CC(C)CN(Cc2cccc(C(=O)O)c2)C3=O)cc(C)c1Cl` (centres unmarked) [I-135, 3-((8-chloro-11-(3-(4-chloro-3,5-dimethylphenoxy)propyl)-4-methyl-1-oxo-7-(1,3,5-trimethyl-1H-pyrazol-4-yl)-4,5-dihydro-1H-[1,4]diazepino[1,2-a]indol-2(3H)-yl)methyl)benzoic acid], the Ki was below 50 nM.

In the case of `Cc1ccc(C(=O)O)cc1N1CCCn2c(c(CCCOc3cc(C)c(Cl)c(C)c3)c3ccc(Cl)c(-c4c(C)nn(C)c4C)c32)C1=O` [I-100, 3-(8-chloro-11-(3-(4-chloro-3,5-dimethylphenoxy)propyl)-1-oxo-7-(1,3,5-trimethyl-1H-pyrazol-4-yl)-4,5-dihydro-1H-[1,4]diazepino[1,2-a]indol-2(3H)-yl)-4-methylbenzoic acid], the Ki was below 50 nM.

Take `CC[C@H](C)[C@H](NC(=O)c1ccc(CNC(=O)c2[nH]c3c(-c4c(C)nn(C)c4C)cccc3c2CCCOc2cc(C)c(Cl)c(C)c2)o1)C(=O)O` [I-270, (5-((3-(3-(4-chloro-3,5-dimethylphenoxy)propyl)-7-(1,3,5-trimethyl-1H-pyrazol-4-yl)-1H-indole-2-carboxamido)methyl)furan-2-carbonyl)-L-isoleucine]: the Ki is below 50 nM.

As for `Cc1cc(OCCCc2c(C(=O)NCCC(=O)NS(=O)(=O)c3ccc4ccccc4c3)[nH]c3ccccc23)cc(C)c1Cl` [I-16, 3-(3-(4-chloro-3,5-dimethylphenoxy)propyl)-N-(3-(naphthalene-2-sulfonamido)-3-oxopropyl)-1H-indole-2-carboxamide], the Ki is 101 to 299 nM.

Take `CC/N=C(/NCCCN(C)C)n1nc(C)c(-c2cccc3c(CCCOc4cc(C)c(Cl)c(C)c4)c(C(=O)NCc4cccc(C(=O)O)c4)[nH]c23)c1C` [I-70, 3-((3-(3-(4-chloro-3,5-dimethylphenoxy)propyl)-7-(1-(N-(3-(dimethylamino)propyl)-N′-ethylcarbamimidoyl)-3,5-dimethyl-1H-pyrazol-4-yl)-1H-indole-2-carboxamido)methyl)benzoic acid]: the inhibitory constant (Ki) is 51 to 100 nM.

On to `Cc1cc(OCCCc2c3n(c4c(-c5c(C)nn(C)c5C)c(Cl)ccc24)[C@@H](C)CN(c2cccc(C(=O)O)c2)C3=O)cc(C)c1Cl` [I-165, (S)-3-(7-chloro-10-(3-(4-chloro-3,5-dimethylphenoxy)propyl)-4-methyl-1-oxo-6-(1,3,5-trimethyl-1H-pyrazol-4-yl)-3,4-dihydropyrazino[1,2-a]indol-2(1H)-yl)benzoic acid], for which the Ki was below 50 nM.

In the case of `Cc1cc(OCCCc2c(C(=O)N3CCN(c4ccc(C(=O)O)cc4)CC3)n(Cc3ccccc3)c3c(-c4c(C)nn(C)c4C)c(Cl)ccc23)cc(C)c1Cl` [I-342, 4-(4-(1-benzyl-6-chloro-3-(3-(4-chloro-3,5-dimethylphenoxy)propyl)-7-(1,3,5-trimethyl-1H-pyrazol-4-yl)-1H-indole-2-carbonyl)piperazin-1-yl)benzoic acid], the inhibition constant (Ki) was 51 to 100 nM.

As for `Cc1cc(OCCCc2c(C(=O)NCCC(=O)NS(=O)(=O)c3ccc([N+](=O)[O-])cc3)[nH]c3c(-c4c(C)n[nH]c4C)cccc23)cc(C)c1Cl` [I-24, 3-(3-(4-chloro-3,5-dimethylphenoxy)propyl)-7-(3,5-dimethyl-1H-pyrazol-4-yl)-N-(3-((4-nitrophenyl)sulfonamido)-3-oxopropyl)-1H-indole-2-carboxamide], the Ki was 101 to 299 nM.

As for `Cc1cc(OCCCc2c(C(=O)N3CCN(c4ccc(C(=O)O)cc4)CC3)n(C)c3c(-c4c(C)nn(C)c4C)c(Cl)ccc23)cc(C)c1Cl` [I-339, 4-(4-(6-chloro-3-(3-(4-chloro-3,5-dimethylphenoxy)propyl)-1-methyl-7-(1,3,5-trimethyl-1H-pyrazol-4-yl)-1H-indole-2-carbonyl)piperazin-1-yl)benzoic acid], the Ki was below 50 nM.

Regarding `Cc1cc(OCCCc2c3n(c4c(-c5c(C)nn(C)c5C)c(Cl)ccc24)[C@@H](C)CN(Cc2cccc(C(=O)O)c2)C3=O)cc(C)c1Cl` [I-151, (S)-3-((7-chloro-10-(3-(4-chloro-3,5-dimethylphenoxy)propyl)-4-methyl-1-oxo-6-(1,3,5-trimethyl-1H-pyrazol-4-yl)-3,4-dihydropyrazino[1,2-a]indol-2(1H)-yl)methyl)benzoic acid], the inhibition constant Ki is below 50 nM.

Turning to `Cc1cc(OCCCc2c3n(c4c(-c5c(C)nn(C)c5C)c(Cl)ccc24)CCCN(c2cc(CO)cc(C(=O)O)c2)C3=O)cc(C)c1Cl` [I-224, 3-(8-chloro-11-(3-(4-chloro-3,5-dimethylphenoxy)propyl)-1-oxo-7-(1,3,5-trimethyl-1H-pyrazol-4-yl)-4,5-dihydro-1H-[1,4]diazepino[1,2-a]indol-2(3H)-yl)-5-(hydroxymethyl)benzoic acid], the Ki is below 50 nM.

On to `Cc1cc(OCCCc2c3n(c4c(-c5c(C)nn(C)c5C)c(Cl)ccc24)CCCN(c2ccc4ccn(C)c4c2)C3=O)cc(C)c1Cl` [I-248, 8-chloro-1-(3-(4-chloro-3,5-dimethylphenoxy)propyl)-2-(1-methyl-1H-indol-6-yl)-7-(1,3,5-trimethyl-1H-pyrazol-4-yl)-2,3,4,5-tetrahydro-1H-[1,4]diazepino[1,2-a]indol-1-one], for which the Ki is below 50 nM.

Take `Cc1cc(OCCCc2c3n(c4c(-c5c(C)nn(C)c5C)c(Cl)ccc24)CC(C)CNC3=O)cc(C)c1Cl` (centres unmarked) [I-115, 8-chloro-1-(3-(4-chloro-3,5-dimethylphenoxy)propyl)-4-methyl-7-(1,3,5-trimethyl-1H-pyrazol-4-yl)-2,3,4,5-tetrahydro-1H-[1,4]diazepino[1,2-a]indol-1-one]: the Ki is below 50 nM.

For the compound `Cc1cc(OCCCc2c3n(c4c(-c5c(C)nn(C)c5C)c(Cl)ccc24)CCCN(c2cc(C(=O)O)cc(-c4cccn4C)c2)C3=O)cc(C)c1Cl` [I-235, 3-(8-chloro-11-(3-(4-chloro-3,5-dimethylphenoxy)propyl)-1-oxo-7-(1,3,5-trimethyl-1H-pyrazol-4-yl)-4,5-dihydro-1H-[1,4]diazepino[1,2-a]indol-2(3H)-yl)-5-(1-methyl-1H-pyrrol-2-yl)benzoic acid], the Ki was below 50 nM.

On to `Cc1cc(OCCCc2c(C(=O)NCCS(=O)(=O)NC(=O)Cc3ccc(Br)cc3)[nH]c3ccccc23)cc(C)c1Cl` [I-53, N-(2-(N-(2-(4-bromophenyl)acetyl)sulfamoyl)ethyl)-3-(3-(4-chloro-3,5-dimethylphenoxy)propyl)-1H-indole-2-carboxamide], for which the Ki is 301 to 500 nM.
